Data set [1] is described as follows: Turbidity of crude library peptides (absorbance at 600 nm). Format: physicochemical. The following applies: Physical stability of peptides. The method in brief:
(§1)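 Crude peptides at 267 μM in 50 mM sodium acetate pH 4.0 or 50 mM sodium phosphate pH 7.0, pre-incubated 1-2 h at room temperature, then 4 μM final ThT added. Turbidity read first as A600. ThT fluorescence (ex 450/em 480 nm) read every 10 min for 72 h at 40° C, with 5 min shaking before each read; fibril formation = average emission.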

For a further data set, the target named is GLP1R (Homo sapiens, UniProt P43220). Kind of data set: hGLP1R potency, cAMP accumulation in CHO-K1 cells stably overexpressing hGLP1R. Format: cell-based. Set-up: host or cells: CHO-K1. Conditions: for EC50: cAMP accumulation, CHO-K1 cells overexpressing hGLP1R, read-out: hGLP1R pEC50 (converted); for SCTR EC50/GLP1R EC50 ratio: selectivity for hGLP1R over hSCTR, cAMP accumulation in CHO-K1 cells. Put shortly: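 CHO-K1 cells stably expressing hGLP1R (2000/well) in DPBS with 0.05% casein and 0.5 mM IBMX were stimulated 30 min at room temperature with graded compound doses; human GLP-1(7-36) served as positive control. cAMP was read by HTRF after 1 h; EC50 came from variable-slope sigmoid fits (purified peptides: 11-point 3-fold, n=2).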
Chain of GLP1R (P43220 24-463): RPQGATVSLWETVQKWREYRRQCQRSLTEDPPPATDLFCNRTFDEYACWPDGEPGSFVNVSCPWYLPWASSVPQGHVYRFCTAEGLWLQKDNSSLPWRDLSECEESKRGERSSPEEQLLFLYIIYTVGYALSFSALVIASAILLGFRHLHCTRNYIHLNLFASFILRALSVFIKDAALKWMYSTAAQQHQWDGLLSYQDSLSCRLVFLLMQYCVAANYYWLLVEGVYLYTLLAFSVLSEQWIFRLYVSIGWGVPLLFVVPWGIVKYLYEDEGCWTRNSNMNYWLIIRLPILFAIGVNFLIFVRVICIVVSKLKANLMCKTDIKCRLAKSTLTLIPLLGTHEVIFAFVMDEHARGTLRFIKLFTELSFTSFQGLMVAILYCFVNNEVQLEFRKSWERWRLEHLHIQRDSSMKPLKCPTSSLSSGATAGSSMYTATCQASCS
In general terms: Cyclic AMP is a second messenger, typically raised through Gs and lowered through Gi signalling.

Data set [2] in a line: Fibril formation of crude library peptides (Thioflavin T). In kind it is physicochemical. Conditions: Physical stability of peptides. On the set-up: key: average ThT fluorescence emission at 480 nm (ex 450 nm), raw units. Put shortly:
as §1

The next data set deals with SCTR (Homo sapiens, UniProt P47872). Kind of data set: hSCTR potency, cAMP accumulation in CHO-K1 cells stably overexpressing hSCTR. In kind it is cell-based. Set-up: alternatively Euroscreen ES-712-AF; FAST-0161L; host or cells: CHO-K1. The following applies: cAMP accumulation, CHO-K1 cells overexpressing hSCTR; read-out: hSCTR pEC50 (converted). The method in brief: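 Cells plated at 2000/well in DPBS with 0.05% casein and 0.5 mM IBMX, stimulated 30 min at room temperature with graded compound doses; human secretin as positive control. cAMP read by TR-FRET after 1 h. Purified peptides tested at 11 3-fold dilutions, n=2; EC50 by variable-slope sigmoid fit.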
Chain of SCTR (P47872 23-440): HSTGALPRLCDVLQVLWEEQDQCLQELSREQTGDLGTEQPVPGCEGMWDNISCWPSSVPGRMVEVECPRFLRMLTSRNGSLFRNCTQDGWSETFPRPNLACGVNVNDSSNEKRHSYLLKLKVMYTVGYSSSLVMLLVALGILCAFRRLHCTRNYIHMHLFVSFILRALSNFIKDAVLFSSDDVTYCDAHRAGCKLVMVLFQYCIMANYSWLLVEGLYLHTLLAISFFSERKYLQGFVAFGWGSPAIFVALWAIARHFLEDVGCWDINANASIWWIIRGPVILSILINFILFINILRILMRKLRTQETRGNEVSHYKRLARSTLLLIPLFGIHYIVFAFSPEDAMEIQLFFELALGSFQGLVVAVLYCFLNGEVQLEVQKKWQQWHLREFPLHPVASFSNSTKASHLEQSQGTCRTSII

Each structure is given as a SMILES string. Numbered stars: 1 amine (or outer) side, 2 acyl side, 3 side chain; on linkers, the order of the positions; unused ones are H or OH. Square brackets hold non-standard residues; d marks the D form. Side chains are listed from the residue outwards. Peptide text beside a SMILES is read from it. * marks the point of attachment. C20 diacid = O=C(O)CCCCCCCCCCCCCCCCCCC(=O)*; γGlu = O=C(O)[C@H](CCC(=O)[*:2])N[*:1]; AEEA = NCCOCCOCC(=O)O; Aib = CC(C)(N)C(=O)O

Take `CC(C)C[C@H](NC(=O)[C@H](Cc1ccccc1)NC(=O)[C@H](CCCNC(=N)N)NC(=O)[C@H](CCC(N)=O)NC(=O)[C@H](C)NC(=O)[C@H](C)NC(=O)[C@H](C)NC(=O)[C@H](CCC(=O)O)NC(=O)[C@H](CCC(=O)O)NC(=O)[C@H](CCCCNC(=O)COCCOCCNC(=O)COCCOCCNC(=O)CC[C@H](NC(=O)CCCCCCCCCCCCCCCCCCC(=O)O)C(=O)O)NC(=O)[C@H](CC(C)C)NC(=O)[C@H](CCC(=O)O)NC(=O)[C@H](CO)NC(=O)[C@@H](NC(=O)[C@H](CC(=O)O)NC(=O)[C@H](CO)NC(=O)[C@@H](NC(=O)[C@H](Cc1ccccc1)NC(=O)[C@@H](NC(=O)CNC(=O)[C@H](CCC(=O)O)NC(=O)C(C)(C)NC(=O)[C@@H](N)Cc1c[nH]cn1)[C@@H](C)O)[C@@H](C)O)C(C)C)C(=O)N[C@@H](CCC(=O)O)C(=O)N[C@@H](Cc1c[nH]cn1)C(=O)N[C@@H](CC(C)C)C(=O)N[C@H](C(N)=O)C(C)C` [compound 98] (H-H[Aib]EGTFTSDVSELK([AEEA-AEEA-γGlu-C20 diacid])EEAAAQRFLEHLV-NH2): the “Turbidity (pH 7)” value in data set [1] was determined as 0.09. Besides, the EC50 on GLP1R was 0.0251 nM; on SCTR, 1260 nM. For the same compound, the “SCTR EC50/GLP1R EC50 ratio” value on GLP1R was 48854. Moreover, the Fibril formation in data set [2] came to 10655.
On the same counts, the results for `CC(C)C[C@H](NC(=O)[C@H](CCC(=O)O)NC(=O)[C@H](CCCCNC(=O)COCCOCCNC(=O)COCCOCCNC(=O)CC[C@H](NC(=O)CCCCCCCCCCCCCCCCCCC(=O)O)C(=O)O)NC(=O)[C@H](CC(C)C)NC(=O)[C@H](CCC(=O)O)NC(=O)[C@H](CO)NC(=O)[C@@H](NC(=O)[C@H](CC(=O)O)NC(=O)[C@H](CO)NC(=O)[C@@H](NC(=O)[C@H](Cc1ccccc1)NC(=O)[C@@H](NC(=O)CNC(=O)[C@H](CCC(=O)O)NC(=O)C(C)(C)NC(=O)[C@@H](N)Cc1c[nH]cn1)[C@@H](C)O)[C@@H](C)O)C(C)C)C(=O)N[C@@H](C)C(=O)N[C@@H](C)C(=O)N[C@@H](CCC(N)=O)C(=O)N[C@@H](CCC(N)=O)C(=O)N[C@@H](CCCNC(=N)N)C(=O)N[C@@H](Cc1ccccc1)C(=O)N[C@@H](CC(C)C)C(=O)N[C@@H](CCC(=O)O)C(=O)N[C@@H](Cc1c[nH]cn1)C(=O)N[C@@H](CC(C)C)C(=O)N[C@H](C(N)=O)C(C)C` [compound 99] (H-H[Aib]EGTFTSDVSELK([AEEA-AEEA-γGlu-C20 diacid])ELAAQQRFLEHLV-NH2) are 0.17, 0.0158 nM, 794 nM, 52372 and 87225.
The matching figures for `CC(C)C[C@H](NC(=O)[C@H](Cc1ccccc1)NC(=O)[C@H](CCCNC(=N)N)NC(=O)[C@H](CCC(N)=O)NC(=O)[C@H](CCC(N)=O)NC(=O)[C@H](C)NC(=O)[C@H](C)NC(=O)[C@H](Cc1ccccc1)NC(=O)[C@H](CCC(=O)O)NC(=O)[C@H](CCCCNC(=O)COCCOCCNC(=O)COCCOCCNC(=O)CC[C@H](NC(=O)CCCCCCCCCCCCCCCCCCC(=O)O)C(=O)O)NC(=O)[C@H](CC(C)C)NC(=O)[C@@H](NC(=O)[C@H](CO)NC(=O)[C@@H](NC(=O)[C@H](CC(=O)O)NC(=O)[C@H](CO)NC(=O)[C@@H](NC(=O)[C@H](Cc1ccccc1)NC(=O)[C@@H](NC(=O)CNC(=O)[C@H](CCC(=O)O)NC(=O)C(C)(C)NC(=O)[C@@H](N)Cc1c[nH]cn1)[C@@H](C)O)[C@@H](C)O)C(C)C)[C@@H](C)O)C(=O)N[C@@H](CCC(=O)O)C(=O)N[C@@H](Cc1c[nH]cn1)C(=O)N[C@@H](CC(C)C)C(=O)N[C@H](C(N)=O)C(C)C` [compound 100] (H-H[Aib]EGTFTSDVSTLK([AEEA-AEEA-γGlu-C20 diacid])EFAAQQRFLEHLV-NH2): 0.08, 0.126 nM, 794 nM, 6301 and 24482.
The matching figures for `CC(C)C[C@H](NC(=O)[C@H](Cc1ccccc1)NC(=O)[C@H](CCCNC(=N)N)NC(=O)[C@H](CCC(N)=O)NC(=O)C(C)(C)NC(=O)[C@H](C)NC(=O)[C@H](C)NC(=O)[C@@H](NC(=O)[C@H](CCC(=O)O)NC(=O)[C@H](CCCCNC(=O)COCCOCCNC(=O)COCCOCCNC(=O)CC[C@H](NC(=O)CCCCCCCCCCCCCCCCCCC(=O)O)C(=O)O)NC(=O)[C@H](CC(C)C)NC(=O)[C@@H](NC(=O)[C@H](CO)NC(=O)[C@@H](NC(=O)[C@H](CC(=O)O)NC(=O)[C@H](CO)NC(=O)[C@@H](NC(=O)[C@H](Cc1ccccc1)NC(=O)[C@@H](NC(=O)CNC(=O)[C@H](CCC(=O)O)NC(=O)C(C)(C)NC(=O)[C@@H](N)Cc1c[nH]cn1)[C@@H](C)O)[C@@H](C)O)C(C)C)C(C)C)[C@@H](C)O)C(=O)N[C@@H](CCC(=O)O)C(=O)N[C@@H](Cc1c[nH]cn1)C(=O)N[C@@H](CC(C)C)C(=O)N[C@H](C(N)=O)C(C)C` [compound 101] (H-H[Aib]EGTFTSDVSVLK([AEEA-AEEA-γGlu-C20 diacid])ETAA[Aib]QRFLEHLV-NH2): 0.08, 0.2 nM, 1000 nM, 5030 and 8172.
For the compound `CC(C)C[C@H](NC(=O)[C@H](Cc1ccccc1)NC(=O)[C@H](CCCNC(=N)N)NC(=O)[C@H](CCC(N)=O)NC(=O)[C@@H](NC(=O)[C@H](C)NC(=O)[C@H](C)NC(=O)[C@H](CCC(=O)O)NC(=O)[C@H](CCC(=O)O)NC(=O)[C@H](CCCCNC(=O)COCCOCCNC(=O)COCCOCCNC(=O)CC[C@H](NC(=O)CCCCCCCCCCCCCCCCCCC(=O)O)C(=O)O)NC(=O)[C@H](CC(C)C)NC(=O)[C@@H](NC(=O)[C@H](CO)NC(=O)[C@@H](NC(=O)[C@H](CC(=O)O)NC(=O)[C@H](CO)NC(=O)[C@@H](NC(=O)[C@H](Cc1ccccc1)NC(=O)[C@@H](NC(=O)CNC(=O)[C@H](CCC(=O)O)NC(=O)C(C)(C)NC(=O)[C@@H](N)Cc1c[nH]cn1)[C@@H](C)O)[C@@H](C)O)C(C)C)[C@@H](C)O)[C@@H](C)O)C(=O)N[C@@H](CCC(=O)O)C(=O)N[C@@H](Cc1c[nH]cn1)C(=O)N[C@@H](CC(C)C)C(=O)N[C@H](C(N)=O)C(C)C` [compound 102] (H-H[Aib]EGTFTSDVSTLK([AEEA-AEEA-γGlu-C20 diacid])EEAATQRFLEHLV-NH2), in data set [1], the “Turbidity (pH 7)” value stood at 0.08. In addition, on GLP1R, the EC50 was 0.01 nM and the “SCTR EC50/GLP1R EC50 ratio” value came to 8851. This compound yielded a Fibril formation in data set [2] of 6284. Besides, at SCTR, the EC50 was 79.4 nM.
On the same counts, the results for `CC(C)C[C@H](NC(=O)[C@H](Cc1ccccc1)NC(=O)[C@H](CCCNC(=N)N)NC(=O)[C@H](CCC(N)=O)NC(=O)[C@H](CC(C)C)NC(=O)C(C)(C)NC(=O)[C@H](C)NC(=O)[C@H](CCC(=O)O)NC(=O)[C@H](CCC(=O)O)NC(=O)[C@H](CCCCNC(=O)COCCOCCNC(=O)COCCOCCNC(=O)CC[C@H](NC(=O)CCCCCCCCCCCCCCCCCCC(=O)O)C(=O)O)NC(=O)[C@H](CC(C)C)NC(=O)[C@H](Cc1ccc(O)cc1)NC(=O)[C@H](CO)NC(=O)C(C)(C)NC(=O)[C@H](CC(=O)O)NC(=O)[C@H](CO)NC(=O)[C@@H](NC(=O)[C@H](Cc1ccccc1)NC(=O)[C@@H](NC(=O)CNC(=O)[C@H](CCC(=O)O)NC(=O)C(C)(C)NC(=O)[C@@H](N)Cc1c[nH]cn1)[C@@H](C)O)[C@@H](C)O)C(=O)N[C@@H](CCC(=O)O)C(=O)N[C@@H](Cc1c[nH]cn1)C(=O)N[C@@H](CC(C)C)C(=O)N[C@H](C(N)=O)C(C)C` [compound 103] (H-H[Aib]EGTFTSD[Aib]SYLK([AEEA-AEEA-γGlu-C20 diacid])EEA[Aib]LQRFLEHLV-NH2) are 0.08, 0.00794 nM, 1181272, 3646 and 10000 nM.
The matching figures for `CC[C@H](C)[C@H](NC(=O)[C@H](Cc1ccccc1)NC(=O)[C@H](CCCNC(=N)N)NC(=O)[C@H](CCC(N)=O)NC(=O)[C@H](CC(C)C)NC(=O)[C@H](C)NC(=O)[C@H](C)NC(=O)CNC(=O)[C@H](CCC(=O)O)NC(=O)[C@H](CC(C)C)NC(=O)[C@H](CC(C)C)NC(=O)[C@H](CCCNC(=N)N)NC(=O)[C@H](CO)NC(=O)C(C)(C)NC(=O)[C@H](CC(=O)O)NC(=O)[C@H](CO)NC(=O)[C@@H](NC(=O)[C@H](Cc1ccccc1)NC(=O)[C@@H](NC(=O)CNC(=O)[C@H](CCC(=O)O)NC(=O)C(C)(C)NC(=O)[C@@H](N)Cc1c[nH]cn1)[C@@H](C)O)[C@@H](C)O)C(=O)N[C@@H](CCC(N)=O)C(=O)N[C@@H](Cc1c[nH]c2ccccc12)C(=O)N[C@@H](CC(C)C)C(=O)N[C@H](C(N)=O)C(C)C` [compound 104] (H-H[Aib]EGTFTSD[Aib]SRLLEGAALQRFIQWLV-NH2): 0.12, 0.126 nM, 2902, 1348 and 316 nM.
